{"source": "patent US20090306093A1", "about": "“METHOD FOR TREATING PATIENT HAVING BENIGN PROSTATE HYPERPLASIA” (KAOHSIUNG MEDICAL UNIVERSITY, priority 2008, published 2009)", "key": {"PKG": {"test_system": "PKG", "assay": "Western blot of PKG expression in rat prostate", "experimental": "Prostate strips were incubated with KMUP-1 (10-100 μM), sildenafil (100 μM) and zaprinast (100 μM) in 10 mL Tyrode solution aerated with 95% O2 and 5% CO2 for 1 hour. To examine the possible mechanisms of KMUP-1 action, the rat prostate were pretreated with ODQ (10 μM), SQ22536 (10 μM) and RP-8pCPT-cGMPs (10 μM) for 30 minutes prior to the addition of KMUP-1 (100 μM).\n(§1) In order to examine the expression of Rho kinase in prostate, the prostate strips were pre-incubated with phenylephrine (10 μM) for 30 minutes. After a pre-treatment of phenylephrine, KMUP-1 (10-100 μM) and Y-27632 (10 μM) were further incubated for 30 minutes. After the incubation time, the prostate were extracted with protein extraction reagent (Pierce Biotechnology, Inc., Rockford, Ill., USA.). The PZ-HPV-7 cells were incubated with and without KMUP-1 (0.1-10 μM) at 30 minutes, 8 and 24 hours. They were then washed rapidly with ice-cold PBS, incubated with protein extraction reagent, and scraped from the plates. The prostate tissues and cells were sonicated three times for 10 second each time and centrifuged at 13,000 rpm at 4° C. for 30 minutes. The protein concentrations of supernatants were determined, using bovine serum albumin as the standard. Tissue and cell extract protein were then boiled at a ratio of 4:1 with sample buffer (100 mM Tris, pH 6.8, 20% glycerol, 4% SDS, and 0.2% bromphenol blue). 40-60 μg protein was used in this experiment. Electrophoresis was performed using 10 or 12% SDS-polyacrylamide gel electrophoresis and then transferred to nitrocellulose membranes (Millipore Corporation, Billerica, Mass.). The membrane was blocked with Tris-buffered saline (20 mM Tris and 137 mM NaCl, pH 7.6) containing 0.1% Tween 20 (TTBS) and 5% non-fat milk at room temperature for 1 hour, washed with TTBS, and then incubated overnight at 4° C. in the appropriate primary antibody of PKG (Santa Cruz, 1:200), sGCa1 (Santa Cruz, 1:200), PKA (Abcam, 1:1000), ROCK2 (Upstate, 1:1000), and PDE5A (BD Biosciences, 1:1000), p21 (Upstate, 1:1000). The membranes were washed in TTBS before being incubated with horseradish peroxidase-conjugated antibody against mouse, goat, or rabbit IgG (Santa Cruz, 1:1000) for 1 hour. The membrane was then washed in TTBS and developed with the enhanced chemiluminescence (ECL) for the detection of the specific antigen. The intensity of the bands was measured by densitometry."}, "p21": {"test_system": "p21", "assay": "Western blot of p21 protein in PZ-HPV-7 cells", "format": "cell-based, human", "details": "1, 10 μM, until 24 hours", "experimental": "as §1, with “The membrane was blocked with Tris-buffered saline (20 mM Tris and 137 mM NaCl, pH 7.6) containing 0.1% Tween 20 (TTBS) and 5% non-fat milk at room temperature for 1 hour, washed with TTBS, and then incubated overnight at 4° C. in the appropriate primary antibody of PKG (Santa Cruz, 1:200), sGCa1 (Santa Cruz, 1:200), PKA (Abcam, 1:1000), ROCK2 (Upstate, 1:1000), and PDE5A (BD Biosciences, 1:1000), p21 (Upstate, 1:1000). The membranes were washed in TTBS before being incubated with horseradish peroxidase-conjugated antibody against mouse, goat, or rabbit IgG (Santa Cruz, 1:1000) for 1 hour. The membrane was then washed in TTBS and developed with the enhanced chemiluminescence (ECL) for the detection of the specific antigen.” left out"}, "ROCK2": {"test_system": "ROCK2", "assay": "Western blot of phenylephrine-induced Rho kinase (ROCK2) expression in rat prostate", "details": "KMUP-1 10, 100 μM; Y-27632 10 μM; phenylephrine 10 μM", "experimental": "as §1, with “The membrane was blocked with Tris-buffered saline (20 mM Tris and 137 mM NaCl, pH 7.6) containing 0.1% Tween 20 (TTBS) and 5% non-fat milk at room temperature for 1 hour, washed with TTBS, and then incubated overnight at 4° C. in the appropriate primary antibody of PKG (Santa Cruz, 1:200), sGCa1 (Santa Cruz, 1:200), PKA (Abcam, 1:1000), ROCK2 (Upstate, 1:1000), and PDE5A (BD Biosciences, 1:1000), p21 (Upstate, 1:1000). The membranes were washed in TTBS before being incubated with horseradish peroxidase-conjugated antibody against mouse, goat, or rabbit IgG (Santa Cruz, 1:1000) for 1 hour. The membrane was then washed in TTBS and developed with the enhanced chemiluminescence (ECL) for the detection of the specific antigen.” left out"}, "a1-adrenoceptor": {"test_system": "a1-adrenoceptor", "assay": "Antagonism of phenylephrine-induced contraction in isolated rat prostate strips", "details": "against phenylephrine, KMUP-1 0.01-1 μM", "experimental": "Smooth muscle contractility of isolated Wistar rat prostate was used to evaluate the possible involvement of a1-adrenoceptor antagonism by KMUP-1. KMUP-1 (0.01-1 μM) or vehicle was added to organ bath, containing the Tyrode solution, for 30 minutes after a concentration-response curve to phenylephrine (0.001-100 μM) was obtained.\nConcentration-response curves of phenylephrine were dose-dependently parallel-shifted to the right by KMUP-1."}, "a1D-adrenoceptor": {"biological_target": "T1, a1D-adrenoceptor (Rattus norvegicus, UniProt P23944)", "T1 construct": "The submaxillary glands, spleen, and aorta of rats were separately homogenized; from tissue; host or cells: Wistar rat aorta membranes", "T1 sequence (P23944 1-561)": "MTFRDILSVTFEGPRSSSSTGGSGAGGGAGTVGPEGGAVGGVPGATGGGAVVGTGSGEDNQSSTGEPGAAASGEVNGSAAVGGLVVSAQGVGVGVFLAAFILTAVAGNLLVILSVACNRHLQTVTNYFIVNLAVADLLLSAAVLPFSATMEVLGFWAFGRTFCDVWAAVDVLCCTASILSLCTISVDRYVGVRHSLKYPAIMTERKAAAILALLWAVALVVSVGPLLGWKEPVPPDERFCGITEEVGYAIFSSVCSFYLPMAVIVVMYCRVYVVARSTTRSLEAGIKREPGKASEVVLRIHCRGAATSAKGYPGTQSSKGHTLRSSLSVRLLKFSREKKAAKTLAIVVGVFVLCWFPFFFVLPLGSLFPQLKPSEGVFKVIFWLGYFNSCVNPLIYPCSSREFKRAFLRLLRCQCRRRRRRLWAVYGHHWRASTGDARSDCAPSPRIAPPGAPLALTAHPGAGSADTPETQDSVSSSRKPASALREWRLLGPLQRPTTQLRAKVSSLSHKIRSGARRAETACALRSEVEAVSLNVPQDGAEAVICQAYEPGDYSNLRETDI", "assay": "[3H]-prazosin competition binding, rat aorta membranes", "details": "read-out: Receptor Affinity (pKi) a1D (converted)", "experimental": "Wistar rats were obtained from National Laboratory Animal Breeding and Research Center (Taipei, Taiwan) and housed under a constant temperature and controlled illumination. The submaxillary glands, spleen, and aorta of rats were separately homogenized for 30 seconds with a Kinematica polytron in 20 volumes of ice-cold TE buffer (10 mM Tris HCl, 1 mM EDTA, 0.1 mM ascorbic acid, pH 7.4). The homogenate was filtered under pressure through muslin and the filtrate was centrifuged at 1,000 g for 10 minutes. The supernatant was centrifuged again at 10,000 g for 12 minutes at 4° C. The second supernatant was centrifuged at 30,000 g for 15 minutes at 4° C., and the final pellet was resuspended in the assay buffer (75 mM Tris HCl, 25 mM MgCl2, pH 7.4). Protein content was determined by Bradford's method.\n[^3H]-prazosin, KMUP-1 and membranes (200-300 μg) were incubated for 60 minutes at 25° C. with or without the addition of nonspecific binding agents, in a 75 mM Tris HCl buffer with 25 mM MgCl2, making a final volume of 500 μL. In this experiment, non-specific binding was defined by use of 10 μM phentolamine. […] Membrane-bound radioligand trapped in the filters was counted in a Beckman LS6500 scintillation system (Fullerton, Calif.) with an efficiency of 45%. In each experiment, nonspecifically bound radioligand agents were measured by incubating membrane protein. […]"}}}
{"molecule": "Cn1c(=O)c2c(ncn2CCN2CCN(c3ccccc3Cl)CC2)n(C)c1=O", "note": "[KMUP-1, 7-[2-[4-(2-Chlorobenzene)piperazinyl]ethyl]-1,3-dimethyl xanthine]", "values": [{"measurement": "expression of PKG", "setting": "PKG; KMUP-1 100 μM after pretreatment of RP-8-pCPT-cGMPs 10 μM for 30 minutes", "value": "significantly reduce"}, {"measurement": "expression of PKG", "setting": "PKG; KMUP-1 10, 100 μM, sildenafil, zaprinast 100 μM", "value": "significantly induce"}, {"measurement": "production of p21 protein levels", "setting": "p21", "value": "potently induces"}, {"measurement": "phenylephrine-induced Rho kinase expression", "setting": "ROCK2", "value": "protected against phenylephrine-induced Rho kinase expression"}, {"measurement": "apparent pA2", "setting": "a1-adrenoceptor", "value": "7.82±0.33"}, {"measurement": "Ki", "setting": "a1D-adrenoceptor", "value": 20.4, "unit": "nM"}]}
